According to ChEMBL document CHEMBL4507275, “Data for DCP probe BI-2545” (2021):

How the values were obtained:
[1] = molecular target: AP2-associated protein kinase 1 (Homo sapiens) (UniProt Q2M2I8); details: Compound concentration 1000.0 nM
[2] = test system: Tyrosine-protein kinase ABL1 (Homo sapiens), P00519 [M351T]; details: Compound concentration 1000.0 nM
[3] = molecular target: Aurora kinase A (Homo sapiens) (UniProt O14965); details: Compound concentration 1000.0 nM
[4] = molecular target: Protein-tyrosine kinase 6 (Homo sapiens) (UniProt Q13882); details: Compound concentration 1000.0 nM
[5] = molecular target: Cyclin-dependent kinase 7 (Homo sapiens) (UniProt P50613); details: Compound concentration 1000.0 nM
[6] = molecular target: Cyclin-dependent kinase-like 5 (Homo sapiens) (UniProt O76039); details: Compound concentration 1000.0 nM
[7] = molecular target: Myotonin-protein kinase (Homo sapiens) (UniProt Q09013); details: Compound concentration 1000.0 nM
Chain of Myotonin-protein kinase (Homo sapiens) (Q09013 whole entry): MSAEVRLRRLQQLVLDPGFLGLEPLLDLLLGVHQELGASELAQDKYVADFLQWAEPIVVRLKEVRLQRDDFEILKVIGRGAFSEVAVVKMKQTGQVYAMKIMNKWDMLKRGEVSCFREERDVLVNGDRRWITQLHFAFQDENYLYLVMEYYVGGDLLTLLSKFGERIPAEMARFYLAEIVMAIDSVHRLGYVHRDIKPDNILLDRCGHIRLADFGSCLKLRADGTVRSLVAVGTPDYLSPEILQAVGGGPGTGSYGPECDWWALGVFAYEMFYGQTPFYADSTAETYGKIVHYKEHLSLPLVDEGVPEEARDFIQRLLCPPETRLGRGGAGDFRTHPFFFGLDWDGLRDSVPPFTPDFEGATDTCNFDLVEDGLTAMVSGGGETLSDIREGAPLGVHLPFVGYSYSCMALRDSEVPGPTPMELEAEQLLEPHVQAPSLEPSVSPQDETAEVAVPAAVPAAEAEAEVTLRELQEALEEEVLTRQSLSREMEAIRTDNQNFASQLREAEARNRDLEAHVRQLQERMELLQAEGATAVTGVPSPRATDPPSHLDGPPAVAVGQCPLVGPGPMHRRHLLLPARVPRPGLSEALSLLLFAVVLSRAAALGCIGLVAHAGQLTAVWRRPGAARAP

[8] = molecular target: Serine/threonine-protein kinase 17A (Homo sapiens) (UniProt Q9UEE5); details: Compound concentration 1000.0 nM
[9] = molecular target: Tyrosine-protein kinase Fer (Homo sapiens) (UniProt P16591); details: Compound concentration 1000.0 nM
[10] = molecular target: Fibroblast growth factor receptor 2 (Homo sapiens) (UniProt P21802); details: Compound concentration 1000.0 nM
[11] = molecular target: Fibroblast growth factor receptor 4 (Homo sapiens) (UniProt P22455); details: Compound concentration 1000.0 nM
[12] = molecular target: Insulin receptor-related protein (Homo sapiens) (UniProt P14616); details: Compound concentration 1000.0 nM
[13] = molecular target: Serine/threonine-protein kinase STK11 (Homo sapiens) (UniProt Q15831); details: Compound concentration 1000.0 nM
[14] = molecular target: Mitogen-activated protein kinase kinase kinase 13 (Homo sapiens) (UniProt O43283); details: Compound concentration 1000.0 nM
[15] = molecular target: Mitogen-activated protein kinase kinase kinase kinase 4 (Homo sapiens) (UniProt O95819); details: Compound concentration 1000.0 nM
Chain of Mitogen-activated protein kinase kinase kinase kinase 4 (Homo sapiens) (O95819 2-1239 limits assumed): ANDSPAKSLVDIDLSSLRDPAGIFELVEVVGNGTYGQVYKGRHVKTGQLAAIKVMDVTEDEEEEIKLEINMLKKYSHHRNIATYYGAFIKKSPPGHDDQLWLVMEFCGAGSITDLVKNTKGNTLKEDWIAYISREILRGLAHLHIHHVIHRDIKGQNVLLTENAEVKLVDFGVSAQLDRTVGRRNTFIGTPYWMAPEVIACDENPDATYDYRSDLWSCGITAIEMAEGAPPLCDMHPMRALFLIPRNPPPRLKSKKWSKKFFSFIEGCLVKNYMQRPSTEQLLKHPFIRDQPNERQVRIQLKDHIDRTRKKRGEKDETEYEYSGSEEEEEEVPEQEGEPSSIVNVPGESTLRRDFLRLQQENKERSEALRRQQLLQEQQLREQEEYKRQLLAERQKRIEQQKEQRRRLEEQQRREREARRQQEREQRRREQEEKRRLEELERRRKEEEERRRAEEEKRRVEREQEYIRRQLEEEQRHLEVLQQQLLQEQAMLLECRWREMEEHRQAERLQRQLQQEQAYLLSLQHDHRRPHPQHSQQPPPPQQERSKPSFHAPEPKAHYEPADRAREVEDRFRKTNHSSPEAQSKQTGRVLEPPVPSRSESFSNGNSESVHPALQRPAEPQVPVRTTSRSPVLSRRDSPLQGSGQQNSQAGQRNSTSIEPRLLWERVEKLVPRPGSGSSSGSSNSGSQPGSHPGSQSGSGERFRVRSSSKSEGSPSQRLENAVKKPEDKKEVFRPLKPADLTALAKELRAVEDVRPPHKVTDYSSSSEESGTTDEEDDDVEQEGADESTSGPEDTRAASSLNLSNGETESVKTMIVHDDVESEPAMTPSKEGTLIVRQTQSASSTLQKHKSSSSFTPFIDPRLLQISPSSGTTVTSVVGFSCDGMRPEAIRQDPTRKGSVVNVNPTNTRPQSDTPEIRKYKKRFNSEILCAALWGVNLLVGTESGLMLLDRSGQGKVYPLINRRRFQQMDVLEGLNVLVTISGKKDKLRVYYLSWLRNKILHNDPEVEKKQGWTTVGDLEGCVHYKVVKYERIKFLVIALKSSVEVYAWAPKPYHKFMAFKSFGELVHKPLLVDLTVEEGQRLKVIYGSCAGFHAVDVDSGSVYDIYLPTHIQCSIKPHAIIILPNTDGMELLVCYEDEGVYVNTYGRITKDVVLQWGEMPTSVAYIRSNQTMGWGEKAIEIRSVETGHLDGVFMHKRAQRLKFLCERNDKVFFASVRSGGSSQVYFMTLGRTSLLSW

[16] = molecular target: Serine/threonine-protein kinase MARK2 (Homo sapiens) (UniProt Q7KZI7); details: Compound concentration 1000.0 nM
[17] = molecular target: MAP/microtubule affinity-regulating kinase 4 (Homo sapiens) (UniProt Q96L34); details: Compound concentration 1000.0 nM
[18] = molecular target: Microtubule-associated serine/threonine-protein kinase 1 (Homo sapiens) (UniProt Q9Y2H9); details: Compound concentration 1000.0 nM
[19] = test system: Hepatocyte growth factor receptor (Homo sapiens), P08581 [M1250T]; details: Compound concentration 1000.0 nM
[20] = molecular target: Mitogen-activated protein kinase kinase kinase 11 (Homo sapiens) (UniProt Q16584); details: Compound concentration 1000.0 nM
[21] = molecular target: Serine/threonine-protein kinase 4 (Homo sapiens) (UniProt Q13043); details: Compound concentration 1000.0 nM
[22] = molecular target: Serine/threonine-protein kinase Nek11 (Homo sapiens) (UniProt Q8NG66); details: Compound concentration 1000.0 nM
[23] = molecular target: Serine/threonine-protein kinase Nek6 (Homo sapiens) (UniProt Q9HC98); details: Compound concentration 1000.0 nM
[24] = molecular target: Cyclin-dependent kinase 2 homolog (Plasmodium falciparum (isolate 3D7)) (UniProt P61075); details: Compound concentration 1000.0 nM
Chain of Cyclin-dependent kinase 2 homolog (Plasmodium falciparum (isolate 3D7)) (P61075 whole entry, the tested form may be a part): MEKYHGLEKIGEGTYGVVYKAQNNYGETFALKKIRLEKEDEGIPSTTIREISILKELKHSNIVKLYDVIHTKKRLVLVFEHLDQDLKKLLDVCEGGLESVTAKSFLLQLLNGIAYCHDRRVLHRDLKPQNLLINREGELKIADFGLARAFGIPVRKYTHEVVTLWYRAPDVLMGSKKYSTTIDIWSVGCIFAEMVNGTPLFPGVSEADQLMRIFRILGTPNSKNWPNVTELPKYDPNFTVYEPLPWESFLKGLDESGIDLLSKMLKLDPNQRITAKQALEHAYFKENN

[25] = molecular target: Phosphatidylinositol 4-phosphate 3-kinase C2 domain-containing subunit beta (Homo sapiens) (UniProt O00750); details: Compound concentration 1000.0 nM
[26] = test system: Phosphatidylinositol 4,5-bisphosphate 3-kinase catalytic subunit alpha isoform (Homo sapiens), P42336 [E545A]; details: Compound concentration 1000.0 nM
[27] = molecular target: Phosphatidylinositol 4,5-bisphosphate 3-kinase catalytic subunit beta isoform (Homo sapiens) (UniProt P42338); details: Compound concentration 1000.0 nM
Chain of Phosphatidylinositol 4,5-bisphosphate 3-kinase catalytic subunit beta isoform (Homo sapiens) (P42338 whole entry, looked up, canonical isoform): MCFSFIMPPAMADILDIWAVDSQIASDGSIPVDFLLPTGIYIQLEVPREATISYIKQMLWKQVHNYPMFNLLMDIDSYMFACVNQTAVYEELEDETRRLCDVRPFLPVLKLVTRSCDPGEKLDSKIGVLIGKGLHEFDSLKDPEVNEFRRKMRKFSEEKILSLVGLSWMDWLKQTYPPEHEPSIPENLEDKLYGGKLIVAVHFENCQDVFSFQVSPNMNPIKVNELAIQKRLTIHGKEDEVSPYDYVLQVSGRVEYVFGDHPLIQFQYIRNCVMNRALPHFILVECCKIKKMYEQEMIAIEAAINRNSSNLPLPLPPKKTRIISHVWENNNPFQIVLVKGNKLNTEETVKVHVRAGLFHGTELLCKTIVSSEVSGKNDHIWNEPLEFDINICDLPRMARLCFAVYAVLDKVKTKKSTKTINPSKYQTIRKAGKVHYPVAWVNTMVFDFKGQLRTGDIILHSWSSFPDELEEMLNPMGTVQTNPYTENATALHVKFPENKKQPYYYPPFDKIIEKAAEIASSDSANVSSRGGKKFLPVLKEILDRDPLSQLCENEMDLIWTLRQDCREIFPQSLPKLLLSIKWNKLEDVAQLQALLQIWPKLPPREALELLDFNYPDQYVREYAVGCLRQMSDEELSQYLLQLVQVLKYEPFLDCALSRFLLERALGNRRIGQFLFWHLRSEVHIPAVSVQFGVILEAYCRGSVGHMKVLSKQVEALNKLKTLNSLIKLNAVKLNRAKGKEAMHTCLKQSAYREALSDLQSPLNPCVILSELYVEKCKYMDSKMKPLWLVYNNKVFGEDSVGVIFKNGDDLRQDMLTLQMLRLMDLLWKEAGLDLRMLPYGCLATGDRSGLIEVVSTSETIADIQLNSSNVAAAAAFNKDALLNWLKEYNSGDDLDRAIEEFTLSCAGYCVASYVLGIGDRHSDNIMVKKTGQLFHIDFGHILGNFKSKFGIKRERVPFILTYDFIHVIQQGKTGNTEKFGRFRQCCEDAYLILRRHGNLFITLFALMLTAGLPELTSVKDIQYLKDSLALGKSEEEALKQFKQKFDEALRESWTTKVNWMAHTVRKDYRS

[28] = molecular target: Serine/threonine-protein kinase PLK4 (Homo sapiens) (UniProt O00444); details: Compound concentration 1000.0 nM
[29] = molecular target: cGMP-dependent protein kinase 1 (Homo sapiens) (UniProt Q13976); details: Compound concentration 1000.0 nM
Chain of cGMP-dependent protein kinase 1 (Homo sapiens) (Q13976 whole entry): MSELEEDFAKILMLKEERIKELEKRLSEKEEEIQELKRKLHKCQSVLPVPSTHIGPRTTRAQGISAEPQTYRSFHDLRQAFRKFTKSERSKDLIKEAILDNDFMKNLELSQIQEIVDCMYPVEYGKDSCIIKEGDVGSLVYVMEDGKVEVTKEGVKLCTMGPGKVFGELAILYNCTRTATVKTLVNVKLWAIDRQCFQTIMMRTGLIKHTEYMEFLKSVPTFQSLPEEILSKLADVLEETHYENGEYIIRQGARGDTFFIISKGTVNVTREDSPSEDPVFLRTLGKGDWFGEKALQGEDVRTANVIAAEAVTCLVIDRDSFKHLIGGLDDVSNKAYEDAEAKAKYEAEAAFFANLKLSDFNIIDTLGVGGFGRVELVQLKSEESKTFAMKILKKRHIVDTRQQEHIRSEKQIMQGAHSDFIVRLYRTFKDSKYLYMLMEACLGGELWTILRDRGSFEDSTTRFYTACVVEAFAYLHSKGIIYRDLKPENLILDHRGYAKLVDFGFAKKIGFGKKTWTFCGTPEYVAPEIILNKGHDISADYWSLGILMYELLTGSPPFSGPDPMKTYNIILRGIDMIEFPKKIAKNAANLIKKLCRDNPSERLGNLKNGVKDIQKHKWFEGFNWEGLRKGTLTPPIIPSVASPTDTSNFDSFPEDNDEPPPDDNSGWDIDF

[30] = molecular target: Serine/threonine-protein kinase PRP4 homolog (Homo sapiens) (UniProt Q13523); details: Compound concentration 1000.0 nM
[31] = molecular target: Rho-associated protein kinase 1 (Homo sapiens) (UniProt Q13464); details: Compound concentration 1000.0 nM
[32] = molecular target: Ribosomal protein S6 kinase alpha-6 (Homo sapiens) (UniProt Q9UK32); details: Compound concentration 1000.0 nM
[33] = molecular target: STE20-like serine/threonine-protein kinase (Homo sapiens) (UniProt Q9H2G2); details: Compound concentration 1000.0 nM
[34] = molecular target: TGF-beta receptor type-2 (Homo sapiens) (UniProt P37173); details: Compound concentration 1000.0 nM
[35] = molecular target: Serine/threonine-protein kinase tousled-like 2 (Homo sapiens) (UniProt Q86UE8); details: Compound concentration 1000.0 nM
[36] = molecular target: Tyrosine-protein kinase TXK (Homo sapiens) (UniProt P42681); details: Compound concentration 1000.0 nM
[37] = molecular target: 5-hydroxytryptamine receptor 1D (Homo sapiens) (UniProt P28221); details: Compound concentration 10.0 uM
[38] = molecular target: T1, Alpha-2A adrenergic receptor (Homo sapiens) (UniProt P08913); details: Compound concentration 10.0 uM
T1 sequence (whole entry): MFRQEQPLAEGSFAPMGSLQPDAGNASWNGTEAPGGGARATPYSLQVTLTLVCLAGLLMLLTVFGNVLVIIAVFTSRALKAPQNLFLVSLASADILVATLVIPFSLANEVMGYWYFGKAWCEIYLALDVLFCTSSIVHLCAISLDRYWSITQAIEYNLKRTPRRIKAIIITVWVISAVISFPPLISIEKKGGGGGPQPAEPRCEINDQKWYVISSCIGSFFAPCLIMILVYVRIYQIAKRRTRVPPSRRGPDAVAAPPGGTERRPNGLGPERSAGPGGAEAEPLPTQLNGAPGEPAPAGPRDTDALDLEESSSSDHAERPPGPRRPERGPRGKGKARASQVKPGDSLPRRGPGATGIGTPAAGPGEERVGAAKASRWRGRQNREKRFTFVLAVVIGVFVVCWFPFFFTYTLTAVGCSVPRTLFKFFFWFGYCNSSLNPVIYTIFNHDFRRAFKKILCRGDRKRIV

[39] = molecular target: Alpha-2C adrenergic receptor (Homo sapiens) (UniProt P18825); details: Compound concentration 10.0 uM

Chain of AP2-associated protein kinase 1 (Homo sapiens) (Q2M2I8 whole entry, looked up): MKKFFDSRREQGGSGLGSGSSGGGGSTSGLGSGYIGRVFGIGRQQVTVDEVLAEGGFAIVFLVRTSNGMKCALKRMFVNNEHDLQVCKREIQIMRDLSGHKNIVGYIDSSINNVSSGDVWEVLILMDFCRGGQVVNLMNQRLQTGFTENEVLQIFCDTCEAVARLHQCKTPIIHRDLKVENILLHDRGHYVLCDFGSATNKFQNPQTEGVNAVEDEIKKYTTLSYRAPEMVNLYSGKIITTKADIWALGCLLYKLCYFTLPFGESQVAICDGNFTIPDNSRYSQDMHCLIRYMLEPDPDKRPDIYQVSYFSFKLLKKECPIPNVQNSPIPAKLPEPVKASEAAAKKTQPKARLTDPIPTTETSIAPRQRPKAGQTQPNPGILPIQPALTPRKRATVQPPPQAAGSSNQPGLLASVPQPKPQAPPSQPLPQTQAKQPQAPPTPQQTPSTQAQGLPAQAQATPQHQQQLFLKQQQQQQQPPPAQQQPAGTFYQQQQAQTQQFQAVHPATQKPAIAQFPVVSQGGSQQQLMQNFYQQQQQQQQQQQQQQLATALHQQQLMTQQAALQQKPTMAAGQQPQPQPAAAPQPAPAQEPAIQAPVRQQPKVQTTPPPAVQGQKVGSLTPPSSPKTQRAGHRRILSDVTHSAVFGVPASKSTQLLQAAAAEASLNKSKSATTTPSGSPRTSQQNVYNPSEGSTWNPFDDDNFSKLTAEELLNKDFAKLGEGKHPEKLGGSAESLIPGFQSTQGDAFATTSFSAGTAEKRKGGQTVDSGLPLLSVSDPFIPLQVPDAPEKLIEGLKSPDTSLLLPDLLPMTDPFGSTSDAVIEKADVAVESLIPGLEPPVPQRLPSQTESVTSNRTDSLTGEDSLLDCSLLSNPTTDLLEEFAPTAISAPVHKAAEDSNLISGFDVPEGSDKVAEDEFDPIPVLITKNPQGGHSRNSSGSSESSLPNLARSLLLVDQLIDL

O=C(NC[C@@H]1[C@H]2CN(C(=O)OCc3cc(C(F)(F)F)cc(C(F)(F)F)c3)C[C@@H]12)c1ccc2[nH]nnc2c1 [BI 2545]
inactive: residual activity [1] 96% | residual activity [2] 98% | residual activity [3] 93% | residual activity [4] 96% | residual activity [5] 92% | residual activity [6] 100% | residual activity [7] 94% | residual activity [8] 95% | residual activity [9] 97% | residual activity [10] 100% | residual activity [11] 82% | residual activity [12] 83% | residual activity [13] 100% | residual activity [14] 86% | residual activity [15] 100% | residual activity [16] 89% | residual activity [17] 94% | residual activity [18] 100% | residual activity [19] 100% | residual activity [20] 99% | residual activity [21] 100% | residual activity [22] 100% | residual activity [23] 100% | residual activity [24] 100% | residual activity [25] 65% | residual activity [26] 96% | residual activity [27] 100% | residual activity [28] 82% | residual activity [29] 83% | residual activity [30] 100% | residual activity [31] 85% | residual activity [32] 67% | residual activity [33] 100% | residual activity [34] 100% | residual activity [35] 90% | residual activity [36] 84% | inhibition [37] 43.2% | inhibition [38] 14.3% | inhibition [39] 19%

Cc1nccc(COC(=O)N2C[C@@H]3[C@@H](CNC(=O)c4ccc5[nH]nnc5c4)[C@@H]3C2)n1 [BI 3017]
inactive: residual activity [1] 100% | residual activity [2] 95% | residual activity [3] 91% | residual activity [4] 100% | residual activity [5] 78% | residual activity [6] 87% | residual activity [7] 98% | residual activity [8] 79% | residual activity [9] 100% | residual activity [10] 78% | residual activity [11] 81% | residual activity [12] 100% | residual activity [13] 100% | residual activity [14] 65% | residual activity [15] 99% | residual activity [16] 97% | residual activity [17] 85% | residual activity [18] 100% | residual activity [19] 100% | residual activity [20] 100% | residual activity [21] 100% | residual activity [22] 88% | residual activity [23] 100% | residual activity [24] 85% | residual activity [25] 97% | residual activity [26] 87% | residual activity [27] 84% | residual activity [28] 83% | residual activity [29] 100% | residual activity [30] 95% | residual activity [31] 71% | residual activity [32] 100% | residual activity [33] 100% | residual activity [34] 100% | residual activity [35] 100% | residual activity [36] 94% | inhibition [37] 23% | inhibition [38] 2.2% | inhibition [39] 3.82%
